In patent US8338465B2, “Cyclic carboxylic acid rhodanine derivatives for the treatment and prevention of tuberculosis” (priority 2006, dated 2012) one finds IC50 data, which are given here for 50 molecules.

This assay addresses T1, dihydrolipoamide acyltransferase (DlaT) (Mycobacterium tuberculosis, UniProt P9WIS7).
T1 sequence (P9WIS7 1-553): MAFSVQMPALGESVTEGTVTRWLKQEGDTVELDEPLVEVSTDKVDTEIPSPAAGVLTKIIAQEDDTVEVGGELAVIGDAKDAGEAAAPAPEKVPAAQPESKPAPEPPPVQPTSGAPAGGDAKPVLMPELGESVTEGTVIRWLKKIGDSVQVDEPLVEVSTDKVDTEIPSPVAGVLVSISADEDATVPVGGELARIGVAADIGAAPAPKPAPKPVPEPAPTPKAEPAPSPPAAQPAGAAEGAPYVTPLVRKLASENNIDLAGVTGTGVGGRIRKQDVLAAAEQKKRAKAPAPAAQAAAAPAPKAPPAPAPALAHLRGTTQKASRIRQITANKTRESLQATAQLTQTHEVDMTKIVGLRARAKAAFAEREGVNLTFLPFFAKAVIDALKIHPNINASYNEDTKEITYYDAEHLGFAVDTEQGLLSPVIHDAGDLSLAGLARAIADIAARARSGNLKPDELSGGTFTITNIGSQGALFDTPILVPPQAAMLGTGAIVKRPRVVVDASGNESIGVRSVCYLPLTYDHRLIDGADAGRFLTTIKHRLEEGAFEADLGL
Description: DlaT inhibition (Dlat IC50); DTNB peroxidase assay with Lpd, DlaT and AhpD. Format: biochemical.

The mark [1] stands for this setting: Table 1, Compounds A1 to A294, read-out: Dlat IC50 category.

A word on the IC50: it is the point on the concentration scale where inhibition reaches its midpoint.

Molecules are shown by their SMILES. Like-named read-outs stand apart in the source and are kept apart here.

As for `O=C(O)c1cc(N2C(=O)C(=Cc3ccc(-c4c(Cl)cccc4Cl)o3)SC2=S)ccc1Cl` [Compound A109], the IC50 under setting [1] was less than 10 µM.

For the molecule `CC(C)(C)OC(=O)Nc1ccccc1-c1ccc(C=C2SC(=S)N(c3cccc(C(=O)O)c3)C2=O)o1` [Compound A157], the IC50 under setting [1] is more than 41 µM.

For `Cc1ccccc1-c1ccc(C=C2SC(=S)N(c3cc(C(=O)O)cc(C(F)(F)F)c3)C2=O)o1` [Compound A234], the half-inhibitory concentration (IC50) under setting [1] was less than 10 µM.

`Cc1ccccc1-c1ccc(C=C2SC(=S)N(C3CCC(C(=O)O)CC3)C2=O)o1` (centres unmarked) [Compound C61, 4-{4-oxo-2-thioxo-5-[1-(5-o-tolyl-furan-2-yl)-methylidene]-thiazolidin-3-yl}-cyclohexanecarboxylic acid] yielded an IC50 (Dlat IC50 category) of 11 to 40 µM.

`O=C(O)c1ccccc1NN1C(=O)C(=Cc2ccc(-c3ccc(F)cc3)o2)SC1=S` [Compound D45, 2-{5-[1-[5-(4-fluoro-phenyl)-furan-2-yl]-methylidene]-4-oxo-2-thioxo-thiazolidin-3-ylamino}-benzoic acid]: the IC50 (Dlat IC50 category) was less than 10 µM.

Under “Dlat IC50 category”, `O=C(O)c1ccccc1NN1C(=O)C(=Cc2ccc(-c3ccccc3Cl)o2)SC1=S` [Compound D1, 2-{5-[1-[5-(2-chloro-phenyl)-furan-2-yl]-methylidene]-4-oxo-2-thioxo-thiazolidin-3-ylamino}-benzoic acid] gave an IC50 of less than 10 µM.

For the molecule `O=C(O)c1cc(N2C(=O)C(=Cc3ccc(-c4ccccc4OC(F)(F)F)o3)SC2=S)ccc1F` [Compound A281], the 50% inhibitory concentration (IC50) under setting [1] was less than 10 µM.

`CCCCc1ccc(-c2ccc(C=C3SC(=S)N(C4CCCC(C(=O)O)C4)C3=O)o2)cc1` (centres unmarked) [Compound C77, 3-{5-[1-[5-(4-butyl-phenyl)-furan-2-yl]-methylidene]-4-oxo-2-thioxo-thiazolidin-3-yl}-cyclohexanecarboxylic acid] came in with a half-maximal inhibitory concentration (IC50) (Dlat IC50 category) of less than 10 µM.

For `O=C(O)c1cccc(N2C(=O)C(=Cc3ccc(-c4cc(Cl)ccc4Cl)o3)SC2=S)c1` [Compound A36], the IC50 under setting [1] is less than 10 µM.

For the molecule `CC(C)c1ccc(-c2ccc(C=C3SC(=S)N(c4cccc(C(=O)O)c4)C3=O)o2)cc1` [Compound A46], the IC50 under setting [1] was less than 10 µM.

Turning to `O=C(O)c1cccc(N2C(=O)C(=Cc3ccc(-c4ccccc4-c4ccccc4)o3)SC2=S)c1` [Compound A244], the IC50 under setting [1] was less than 10 µM.

For `O=C(O)c1cccc(NN2C(=O)C(=Cc3ccc(-c4ccccc4Cl)o3)SC2=S)c1` [Compound D16, 3-{5-[1-[5-(2-chloro-phenyl)-furan-2-yl]-methylidene]-4-oxo-2-thioxo-thiazolidin-3-ylamino}-benzoic acid], the IC50 (Dlat IC50 category) is less than 10 µM.

Turning to `O=C(O)c1ccc(N2C(=O)C(=Cc3ccc(-c4ccc(Cc5ccccc5)cc4)o3)SC2=S)cc1` [Compound A11], the IC50 under setting [1] is 11 to 40 µM.

`O=C(O)CN1C(=O)C(=Cc2ccc(-c3ccc(Cl)cc3)o2)SC1=S` [Compound B60] registered a 50% inhibitory concentration (IC50) (Dlat IC50 category) of 11 to 40 µM.

For `CCCCc1ccc(-c2ccc(C=C3SC(=S)N(c4cc(C(=O)O)ccc4F)C3=O)o2)cc1` [Compound A264], the IC50 under setting [1] is less than 10 µM.

On to `O=C(O)C(c1ccccc1)N1C(=O)C(=Cc2ccc(-c3cccc(Cl)c3)o2)SC1=S` (centres unmarked) [Compound B2], for which the IC50 (Dlat IC50 category) was less than 10 µM.

On to `Cc1ccc(-c2ccc(C=C3SC(=S)N(C4CCCC(C(=O)O)C4)C3=O)o2)c(C)c1` (centres unmarked) [Compound C8, 3-{5-[1-[5-(2,4-dimethyl-phenyl)-furan-2-yl]-methylidene]-4-oxo-2-thioxo-thiazolidin-3-yl}-cyclohexanecarboxylic acid], for which the IC50 (Dlat IC50 category) is less than 10 µM.

Consider `Cc1c(C(=O)O)cccc1N1C(=O)C(=Cc2ccc(-c3ccc(C4CCCCC4)cc3)o2)SC1=S` [Compound A83], for which, under setting [1], the IC50 is less than 10 µM.

As to `O=C(O)c1cccc(N2C(=O)C(=Cc3ccc(-c4ccccc4OC(F)(F)F)o3)SC2=S)c1` [Compound A70], under setting [1], the IC50 is less than 10 µM.

On to `O=C(O)C(c1ccccc1)N1C(=O)C(=Cc2ncc(-c3cccc(Cl)c3)o2)SC1=S` (centres unmarked) [Compound B35], for which the 50% inhibitory concentration (IC50) (Dlat IC50 category) fell in the range of 11 to 40 µM.

On to `O=C(O)c1cccc(N2C(=O)C(=Cc3ccc(-c4ccccc4OCc4ccccc4)o3)SC2=S)c1` [Compound A179], for which the IC50 under setting [1] was less than 10 µM.

For `CS(=O)(=O)c1ccc(-c2ccc(C=C3SC(=S)N(C4CCC(C(=O)O)CC4)C3=O)o2)cc1` (centres unmarked) [Compound C59, 4-{5-[5-(4-Methanesulfonyl-phenyl)-furan-2-ylmethylene]-4-oxo-2-thioxo-thiazolidin-3-yl}-cyclohexanecarboxylic acid], where the note is “Dlat IC50 category”, the IC50 is less than 10 µM.

`O=C(O)C1CCCC(N2C(=O)C(=Cc3ccc(-c4ccccc4-c4ccccc4)o3)SC2=S)C1` (centres unmarked) [Compound C70, 3-{5-[1-(5-biphenyl-2-yl-furan-2-yl)-methylidene]-4-oxo-2-thioxo-thiazolidin-3-yl}-cyclohexanecarboxylic acid] displayed an IC50 (Dlat IC50 category) of less than 10 µM.

Regarding `CN(C)Cc1ccc(-c2ccc(C=C3SC(=S)N(c4cccc(C(=O)O)c4)C3=O)o2)cc1` [Compound A122], the IC50 under setting [1] was 11 to 40 µM.

Molecule `O=C(O)C(c1ccccc1)N1C(=O)C(=Cc2ccc(-c3ccc(O)cc3)o2)SC1=S` (centres unmarked) [Compound B29] displayed an IC50 (Dlat IC50 category) of 11 to 40 µM.

As to `Cc1cc(F)ccc1-c1ccc(C=C2SC(=S)N(c3cccc(C(=O)O)c3)C2=O)o1` [Compound A148], the IC50 under setting [1] was less than 10 µM.

`O=C(O)c1cccc(N2C(=O)C(=Cc3ccc(-c4ccccc4Cl)s3)SC2=S)c1` [Compound A189]: the IC50 under setting [1] was less than 10 µM.

In turn, `CSc1ccccc1-c1ccc(C=C2SC(=S)N(C3CCC(C(=O)O)CC3)C2=O)o1` (centres unmarked) [Compound C54, 4-{5-[1-[5-(2-methylsulfanyl-phenyl)-furan-2-yl]-methylidene]-4-oxo-2-thioxo-thiazolidin-3-yl}-cyclohexanecarboxylic acid] registered an IC50 (Dlat IC50 category) of less than 10 µM.

As to `NC(=O)c1cccc(N2C(=O)C(=Cc3ccc(-c4ccc(Cl)cc4)o3)SC2=S)c1` [Compound A77], under setting [1], the IC50 was in the range of 11 to 40 µM.

With `O=C(O)c1cccc(N2C(=O)C(=Cc3ccc(-c4cccc(Cl)c4)o3)SC2=S)c1` [Compound A4], the half-inhibitory concentration (IC50) under setting [1] is 11 to 40 µM.

As to `NC(=O)c1cccc(N2C(=O)C(=Cc3ccc(-c4cccc(C(F)(F)F)c4)o3)SC2=S)c1` [Compound A76], the half-maximal inhibitory concentration (IC50) under setting [1] is 11 to 40 µM.

For `Cc1c(C(=O)O)cccc1N1C(=O)C(=Cc2ccc(-c3ccc(C(C)(C)C)cc3)o2)SC1=S` [Compound A81], the half-inhibitory concentration (IC50) under setting [1] is less than 10 µM.

Turning to `O=C(O)C(Cc1ccccc1)N1C(=O)C(=Cc2ccc(-c3cc(Cl)ccc3Cl)o2)SC1=S` (centres unmarked) [Compound B47], for the setting “Dlat IC50 category”, the IC50 is less than 10 µM.

As for `CSc1ccc(-c2ccc(C=C3SC(=S)N(c4cc(C(=O)O)ccc4F)C3=O)o2)cc1` [Compound A239], under setting [1], the IC50 is less than 10 µM.

In the case of `O=C(O)c1ccc(N2C(=O)C(=Cc3ccc(-c4cccc(C(F)(F)F)c4)o3)SC2=S)cc1` [Compound A10], under setting [1], the IC50 was 11 to 40 µM.

`Cc1ccccc1-c1cccc(C=C2SC(=S)N(C3CCCC(C(=O)O)C3)C2=O)c1` (centres unmarked) [Compound C24, 3-{5-[1-(2′-methyl-biphenyl-3-yl)-methylidene]-4-oxo-2-thioxo-thiazolidin-3-yl}cyclohexanecarboxylic acid] returned an IC50 (Dlat IC50 category) of 11 to 40 µM.

For `CC(C(=O)O)N1C(=O)C(=Cc2ccc(-c3ccccc3C(F)(F)F)o2)SC1=S` (centres unmarked) [Compound B99], the IC50 (Dlat IC50 category) lay within 11 to 40 µM.

Take `O=C(O)c1cc(N2C(=O)C(=Cc3ccc(-c4cccc(C(F)(F)F)c4)o3)SC2=S)ccc1O` [Compound A32]: the IC50 under setting [1] was less than 10 µM.

With `Cc1ccc(-c2ccc(C=C3SC(=S)N(Nc4ccccc4C(=O)O)C3=O)o2)c(F)c1` [Compound D11, 2-{5-[1-[5-(2-fluoro-4-methyl-phenyl)-furan-2-yl]-methylidene]-4-oxo-2-thioxo-thiazolidin-3-ylamino}-benzoic acid], the IC50 (Dlat IC50 category) was less than 10 µM.

In turn, `CC(C(=O)O)N1C(=O)C(=Cc2ccc(-c3ccc(Cl)cc3[N+](=O)[O-])o2)SC1=S` (centres unmarked) [Compound B114] came in with an IC50 (Dlat IC50 category) of 11 to 40 µM.

`CC(=O)Nc1ccc(-c2ccc(C=C3SC(=S)N(Nc4ccccc4C(=O)O)C3=O)o2)cc1` [Compound D41, 2-{5-[5-(4-acetylamino-phenyl)-furan-2-ylmethylene]-4-oxo-2-thioxo-thiazolidin-3-ylamino}-benzoic acid] had an IC50 (Dlat IC50 category) of less than 10 µM.

`O=C(O)CN1C(=O)C(=Cc2ccc(-c3ccc(C4CCCC4)cc3)o2)SC1=S` [Compound B81] displayed an IC50 (Dlat IC50 category) of less than 10 µM.

With `O=C(O)c1cccc(N2C(=O)C(=Cc3ccc(-c4ccc(F)cc4F)o3)SC2=S)c1` [Compound A153], the IC50 under setting [1] was less than 10 µM.

`O=C(O)c1cccc(N2C(=O)C(=Cc3ccc(-c4ccc(C5CCCC5)cc4)o3)SC2=S)c1` [Compound A94]: the half-inhibitory concentration (IC50) under setting [1] is less than 10 µM.

As to `COc1ccc(C(=O)O)cc1N1C(=O)C(=Cc2ccc(-c3ccc(Cl)cc3)o2)SC1=S` [Compound A87], the IC50 under setting [1] was less than 10 µM.

On to `CC(=O)Nc1ccc(-c2ccc(C=C3SC(=S)N(c4cc(C(=O)O)cc(C(F)(F)F)c4)C3=O)o2)cc1` [Compound A261], for which, under setting [1], the 50% inhibitory concentration (IC50) is less than 10 µM.

Take `Cc1ccccc1-c1ccc(C=C2SC(=S)N(CC(=O)O)C2=O)o1` [Compound B87]: the 50% inhibitory concentration (IC50) (Dlat IC50 category) was in the range of 41 to 80 µM.

For `O=C(O)c1cccc(N2C(=O)C(=Cc3ccc(-c4ccc(F)cc4)o3)SC2=S)c1` [Compound A211], the half-maximal inhibitory concentration (IC50) under setting [1] was less than 10 µM.

Consider `CC(C)c1cccc(-c2ccc(C=C3SC(=S)N(C(Cc4ccccc4)C(=O)O)C3=O)o2)c1` (centres unmarked) [Compound B75], for which the IC50 (Dlat IC50 category) is less than 10 µM.

On to `Cc1cc(N(C)C)ccc1-c1ccc(C=C2SC(=S)N(c3cc(C(=O)O)ccc3F)C2=O)o1` [Compound A183], for which, under setting [1], the IC50 is 11 to 40 µM.
